Source: paper PMC10319809, “Chronic UCN2 treatment desensitizes CRHR2 and improves insulin sensitivity” (Nature Communications, 2023)
“And” between values parts separate entries of the source, which are not always exact repeats. Equal values may be shown once. Blank lines part the entries; values can stand above or below the molecule they belong to. Where no end group is shown, it is not given here.

Key:
[1] = test system: CRHR2-expressing HEK293 cells; experiment: FAM-UCN2 internalization, fluorescence and live cell imaging of HEK293 cells; type: cell-based, human; details: HEK293 cells with or without CRHR2, over 24 h
[2] = test system: mice; experiment: Antisauvagine-30 pre-treatment, oGTT with UCN2; type: in vivo, mouse
Description: For glucose tolerance tests (GTTs), animals were fasted for 8 h with ad libitum access to water. Fasting glucose measurements were taken before 300ug/kg IP dose of ASG30 (Tocris Biosciences, Bristol, UK, Catalog No: 2071) or an equivalent volume of sterile distilled water. 10 min later animals received a 1 mg/kg IP dose of UCN2 or an equivalent volume of saline co-dosed with 300ug/kg of ASG30 or an equivalent volume of water. 20 min later animals received a […] oral glucose dose. Blood glucose measurements were taken via tail nick using the AlphaTRAK 2 Glucose Monitoring System (Zoetis, Parsippany-Troy Hills, NJ) at 10, 30, 60, and 120 min after dose.
(§1) Blood Glucose (mg/dL) +Veh +Veh
(§2) Supplementary Fig. 1. Antisauvagine-30 Blunts Effects of UCN2 on Glucose Uptake.
(§3) (A) Blood glucose during oGTT. Oral glucose gavage occurred at t = 0. At t = -30 animals were
(§4) treated with either Antisauvagine-30 (ASG30) or water. At t = -20 animals were treated with
(§5) either Saline, UCN2 alone, ASG30 alone, or ASG30 and UCN2 together. Mean±SD, n = 6.
(§6) Significance was assessed by one-way ANOVA and Tukey HSD.
(§7) (B) [3H]2-Deoxyglucose uptake by the soleus muscle in insulin-treated or untreated mice, following
(§8) pre-treatment of saline, UCN2, or ASG30 and UCN2. Mean±SD, n = 6.
(§9) Significance was assessed by one-way ANOVA and Tukey HSD. * P < 0.05, ** P < 0.01, *** P < […]

[3] = test system: soleus muscle; experiment: Antisauvagine-30 pre-treatment, [3H]2DG uptake in soleus muscle; type: in vivo, mouse; details: ASG30 300 ug/kg IP pre-treatment, UCN2 1 mg/kg, insulin 0.75 IU/kg
Description: To determine 2-deoxy-glucose (2DG) uptake in soleus muscle, mice were fasted for 5 h and anaesthetized with isoflurane. Animals were injected IP with 300 ug/kg of ASG30 or an equivalent volume of water. […] 15 min following 2DG administration, blood was collected via intracardiac stick and soleus and gastrocnemius muscles were dissected and snap frozen in liquid nitrogen. Samples were stored at −80 C until processing. Blood was treated with BaOH2 and ZnSO4 and after centrifugation, radioactivity was determined via liquid scintillation counting (Tri-Carb 5110TR, PerkinElmer, Waltham, MA). Tissue was homogenized and mixed with water or BaOH2 and ZnSO4 to determine total and unphosphorylated 2DG content.
as §1, §2, §3, §4, §5, §6, §7, §8, §9

[4] = test system: mouse soleus muscle; experiment: Ex vivo soleus muscle [3H]2-deoxyglucose uptake; details: individual muscles
Description: Soleus muscle was removed from fed animals anesthetized by an intraperitoneal injection of pentobarbital (10 mg/100 g body weight). Dissected soleus muscles were suspended at 5 mN of tension in incubation chambers (Model 610/820 M, Danish Myo-Technology, Denmark) containing Krebs-Ringer-Buffer supplemented with 0.1% BSA, 2 mM pyruvate and 8 mM Mannitol. During the entire incubation period the KRB was maintained at 30 °C and oxygenated with 95% O2 and 5% CO2. Following 10 min of pre-incubation muscles were incubated in Krebs buffer +/− 100 nM (−7.0 log[M]) UCN2. At the next time point, 30 min later, muscles were placed in baths containing Krebs buffer +/− 100 nM (−7.0 [M]) UCN2. At the next time point, 15 min later, muscles were placed in baths containing Krebs buffer +/− 100 nM (−7.0 log[M]) UCN2 + /− 60 nM Insulin (Actrapid, Novo Nordisk, Bagsvaerd, Denmark) for 15 min. For the ex vivo glucose uptake studies, 1 mM [^3H]2-deoxyglucose (Perkin-Elmer) and 7 mM [^14C]mannitol (Perkin-Elmer) was also added at this time. Muscles that were in saline in the first bath, saline in the second bath, and saline in the third bath were assigned to the SSS group. Muscles that were in saline in the first bath, saline in the second bath, and UCN2 in the third bath were assigned to the SSU group. Muscles that were in UCN2 in the first bath, saline in the second bath, and UCN2 in the third bath were assigned to the USU group. Muscles that were in saline in the first bath, UCN2 in the second bath, and UCN2 in the third bath were assigned to the SUU group. Following incubation, muscles were harvested, washed in ice-cold KRB and immediately frozen in liquid nitrogen.
Glucose uptake was determined in muscle protein lysates by assessing the accumulation of [^3H]2-deoxyglucose with the use of [^14C]mannitol to correct for the extracellular space. Radioactivity was measured by liquid scintillation counting.

[5] = molecular target: T1, unmodified CRHR2a (corticotropin-releasing hormone receptor 2, alpha isoform) (human) (UniProt Q13324)
T1 sequence: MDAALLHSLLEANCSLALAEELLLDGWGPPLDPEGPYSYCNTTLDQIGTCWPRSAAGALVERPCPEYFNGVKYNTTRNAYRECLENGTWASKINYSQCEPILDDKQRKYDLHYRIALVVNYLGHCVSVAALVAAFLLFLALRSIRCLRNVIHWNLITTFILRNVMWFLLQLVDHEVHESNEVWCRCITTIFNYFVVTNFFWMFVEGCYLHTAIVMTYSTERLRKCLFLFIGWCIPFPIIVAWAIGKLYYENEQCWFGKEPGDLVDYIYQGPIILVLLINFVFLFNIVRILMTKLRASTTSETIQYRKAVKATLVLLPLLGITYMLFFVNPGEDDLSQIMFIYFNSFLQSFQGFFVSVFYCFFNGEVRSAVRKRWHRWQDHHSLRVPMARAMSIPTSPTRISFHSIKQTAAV

Molecule: FAM-UCN2: Fluorescently labeled UCN2 (IVLSLDVPIGLLQILLEQARARAAREQATTNARILARVGHC; ends and bridges not checked; also: FAM label, position not given here)
internalization of the labeled ligand [1]: internalized in a receptor-dependent manner

Molecule: Antisauvagine-30 [ASG30]
glucose tolerance in UCN2-treated animals during oGTT ([2]; ASG30 300ug/kg IP pre-treatment): improved glucose tolerance | effect on UCN2-induced blood glucose ([2]; ASG30 300ug/kg IP pre-treatment and co-dose with 1 mg/kg UCN2): significantly blunted UCN2’s effects on blood glucose | insulin-mediated glucose uptake in soleus muscle in vivo [3]: restored insulin-mediated glucose uptake

Molecule: Insulin
2DG Uptake ([4]; Fig 6C, Vehicle +Insulin): 2.36 µmol/g/h and 3.79 µmol/g/h and 4.38 µmol/g/h and 3.22 µmol/g/h and 3.39 µmol/g/h | 2DG Uptake ([4]; Fig 6D, Insulin-SSS): 3.619 µmol/g/h and 3.768 µmol/g/h and 3.935 µmol/g/h

Gs activation, ebBRET biosensor (Gas-RlucII leaving the plasma membrane), HEK293 cells with increasing UCN2; EC50 of UCN2 [5]: 0.1 nM | β-Arrestin 1 recruitment, ebBRET effector membrane translocation assay, HEK293 cells with increasing UCN2; EC50 of UCN2 [5]: 6.5 nM | β-Arrestin 2 recruitment, ebBRET effector membrane translocation assay, HEK293 cells with increasing UCN2; EC50 of UCN2 [5]: 6.1 nM
Molecule: IVLSLDVPIGLLQILLEQARARAAREQATTNARILARVGHC (ligand) [Urocortin 2 (UCN2)]
